Assay results reported in ChEMBL document CHEMBL3885861, “Open TG-GATES”.

Species on record: Rattus norvegicus
Test: Open TG-GATES - Regimen: Single
Format: toxicity, organism-based, Sprague-Dawley
Parameters: regimen Single, gender Male, age 6 weeks
Settings: in vivo, po, route gavage; for APTT / Bas / Eos / Fbg / Hb / Ht / Lym / MCH / MCHC / MCV / Mono / Neu / PT / Plat / RBC / Ret / WBC: tissue Blood; for KIDNEY_L / KIDNEY_R / KIDNEY_TOTAL: tissue Kidney; for LIVER: tissue Liver; for A/G / ALP / ALT / AST / BUN / CRE / Ca / Cl / DBIL / GLC / IP / K / LDH / Na / PL / RALB / TBIL / TC / TG / TP / gamma-GTP: tissue Plasma
[1] = 150 mg/kg, 3 h, dose level Middle
[2] = 150 mg/kg, 6 h, dose level Middle
[3] = 150 mg/kg, 9 h, dose level Middle
[4] = 150 mg/kg, 24 h, dose level Middle
[5] = 300 mg/kg, 3 h, dose level High
[6] = 300 mg/kg, 6 h, dose level High
[7] = 300 mg/kg, 9 h, dose level High
[8] = 300 mg/kg, 24 h, dose level High

CCC1(c2ccccc2)C(=O)NC(=O)NC1=O [PHENOBARBITAL]
TERMINAL_BW [1]: 224.5 g
APTT [1]: 19.1 s
Bas [1]: 0.4%
Eos [1]: 1%
Fbg [1]: 217.2 mg/dL
Hb [1]: 13.8 g/dL
Ht [1]: 38.5%
Lym [1]: 82.4%
MCH [1]: 21.6 pg
MCHC [1]: 35.8%
MCV [1]: 60.4 fL
Mono [1]: 3%
Neu [1]: 12.6%
PT [1]: 12 s
Plat [1]: 129.5 x10_4/uL
RBC [1]: 637.8 x10_4/ul
Ret [1]: 7.8%
WBC [1]: 81.1 x10_2/uL
KIDNEY_L [1]: 1 g
KIDNEY_R [1]: 1 g
KIDNEY_TOTAL [1]: 2 g
LIVER [1]: 10.3 g
A/G [1]: 1.7
ALP [1]: 765.6 IU/L
ALT [1]: 39 IU/L
AST [1]: 66.4 IU/L
BUN [1]: 8.8 mg/dL
CRE [1]: 0.3 mg/dL
Ca [1]: 10.7 mg/dL
Cl [1]: 101.2 meq/L
DBIL [1]: 0.064 mg/dL
GLC [1]: 184.4 mg/dL
IP [1]: 9.8 mg/dL
K [1]: 4.4 meq/L
LDH [1]: 149.4 IU/L
Na [1]: 139.8 meq/L
PL [1]: 145.4 mg/dL
RALB [1]: 3.3 g/dL
TBIL [1]: 0.1 mg/dL
TC [1]: 71.4 mg/dL
TG [1]: 73.2 mg/dL
TP [1]: 5.3 g/dL
gamma-GTP [1]: 1 IU/L
TERMINAL_BW [2]: 221.3 g
APTT [2]: 20.4 s
Bas [2]: 0.2%
Eos [2]: 0.6%
Fbg [2]: 226 mg/dL
Hb [2]: 13.8 g/dL
Ht [2]: 38.1%
Lym [2]: 79%
MCH [2]: 21.5 pg
MCHC [2]: 36.3%
MCV [2]: 59.3 fL
Mono [2]: 3%
Neu [2]: 15.4%
PT [2]: 12 s
Plat [2]: 125.8 x10_4/uL
RBC [2]: 643 x10_4/ul
Ret [2]: 7.6%
WBC [2]: 90 x10_2/uL
KIDNEY_L [2]: 1 g
KIDNEY_R [2]: 1 g
KIDNEY_TOTAL [2]: 2 g
LIVER [2]: 9.3 g
A/G [2]: 1.5
ALP [2]: 756.8 IU/L
ALT [2]: 28.4 IU/L
AST [2]: 60.8 IU/L
BUN [2]: 8.2 mg/dL
CRE [2]: 0.4 mg/dL
Ca [2]: 10.7 mg/dL
Cl [2]: 100.6 meq/L
DBIL [2]: 0.07 mg/dL
GLC [2]: 178.2 mg/dL
IP [2]: 9.7 mg/dL
K [2]: 4.2 meq/L
LDH [2]: 178.4 IU/L
Na [2]: 139.6 meq/L
PL [2]: 137 mg/dL
RALB [2]: 3.2 g/dL
TBIL [2]: 0.1 mg/dL
TC [2]: 69.2 mg/dL
TG [2]: 67.6 mg/dL
TP [2]: 5.3 g/dL
gamma-GTP [2]: 1.2 IU/L
TERMINAL_BW [3]: 219.3 g
APTT [3]: 20.6 s
Bas [3]: 0%
Eos [3]: 0.4%
Fbg [3]: 215 mg/dL
Hb [3]: 14.1 g/dL
Ht [3]: 38.6%
Lym [3]: 76.6%
MCH [3]: 22.1 pg
MCHC [3]: 36.5%
MCV [3]: 60.5 fL
Mono [3]: 3%
Neu [3]: 19%
PT [3]: 12.2 s
Plat [3]: 121.6 x10_4/uL
RBC [3]: 637.8 x10_4/ul
Ret [3]: 7.7%
WBC [3]: 96.4 x10_2/uL
KIDNEY_L [3]: 1 g
KIDNEY_R [3]: 1 g
KIDNEY_TOTAL [3]: 2 g
LIVER [3]: 9.3 g
A/G [3]: 1.7
ALP [3]: 593.2 IU/L
ALT [3]: 26.6 IU/L
AST [3]: 58.6 IU/L
BUN [3]: 6.8 mg/dL
CRE [3]: 0.3 mg/dL
Ca [3]: 10.4 mg/dL
Cl [3]: 100 meq/L
DBIL [3]: 0.066 mg/dL
GLC [3]: 182 mg/dL
IP [3]: 9.5 mg/dL
K [3]: 4.1 meq/L
LDH [3]: 136 IU/L
Na [3]: 139.8 meq/L
PL [3]: 138.8 mg/dL
RALB [3]: 3.3 g/dL
TBIL [3]: 0.1 mg/dL
TC [3]: 70 mg/dL
TG [3]: 39 mg/dL
TP [3]: 5.2 g/dL
gamma-GTP [3]: 1 IU/L
TERMINAL_BW [4]: 234 g
APTT [4]: 19.2 s
Bas [4]: 0.8%
Eos [4]: 1%
Fbg [4]: 214.2 mg/dL
Hb [4]: 13.9 g/dL
Ht [4]: 38.4%
Lym [4]: 79.6%
MCH [4]: 21.8 pg
MCHC [4]: 36.2%
MCV [4]: 60.3 fL
Mono [4]: 2.2%
Neu [4]: 16%
PT [4]: 11.7 s
Plat [4]: 125.7 x10_4/uL
RBC [4]: 637 x10_4/ul
Ret [4]: 6.5%
WBC [4]: 106.3 x10_2/uL
KIDNEY_L [4]: 1.1 g
KIDNEY_R [4]: 1 g
KIDNEY_TOTAL [4]: 2.1 g
LIVER [4]: 11.5 g
A/G [4]: 1.6
ALP [4]: 882.2 IU/L
ALT [4]: 33.8 IU/L
AST [4]: 75.6 IU/L
BUN [4]: 16 mg/dL
CRE [4]: 0.4 mg/dL
Ca [4]: 10.8 mg/dL
Cl [4]: 102 meq/L
DBIL [4]: 0.058 mg/dL
GLC [4]: 180.6 mg/dL
IP [4]: 7.6 mg/dL
K [4]: 4.2 meq/L
LDH [4]: 264.4 IU/L
Na [4]: 142.4 meq/L
PL [4]: 142.2 mg/dL
RALB [4]: 3.5 g/dL
TBIL [4]: 0.1 mg/dL
TC [4]: 72 mg/dL
TG [4]: 113.2 mg/dL
TP [4]: 5.7 g/dL
gamma-GTP [4]: 1.2 IU/L
TERMINAL_BW [5]: 225.3 g
APTT [5]: 22 s
Bas [5]: 0.2%
Eos [5]: 1%
Fbg [5]: 202.2 mg/dL
Hb [5]: 13.6 g/dL
Ht [5]: 37.8%
Lym [5]: 78.6%
MCH [5]: 21.9 pg
MCHC [5]: 36%
MCV [5]: 61.1 fL
Mono [5]: 2.8%
Neu [5]: 16.6%
PT [5]: 12.3 s
Plat [5]: 122.8 x10_4/uL
RBC [5]: 619.4 x10_4/ul
Ret [5]: 7.8%
WBC [5]: 75.1 x10_2/uL
KIDNEY_L [5]: 1 g
KIDNEY_R [5]: 1 g
KIDNEY_TOTAL [5]: 2.1 g
LIVER [5]: 10 g
A/G [5]: 1.6
ALP [5]: 833 IU/L
ALT [5]: 40.2 IU/L
AST [5]: 73 IU/L
BUN [5]: 8 mg/dL
CRE [5]: 0.3 mg/dL
Ca [5]: 10.5 mg/dL
Cl [5]: 100.6 meq/L
DBIL [5]: 0.064 mg/dL
GLC [5]: 183.2 mg/dL
IP [5]: 10.3 mg/dL
K [5]: 4.1 meq/L
LDH [5]: 142 IU/L
Na [5]: 140.6 meq/L
PL [5]: 152 mg/dL
RALB [5]: 3.2 g/dL
TBIL [5]: 0.1 mg/dL
TC [5]: 77 mg/dL
TG [5]: 57.2 mg/dL
TP [5]: 5.1 g/dL
gamma-GTP [5]: 0.8 IU/L
TERMINAL_BW [6]: 221.9 g
APTT [6]: 20.5 s
Bas [6]: 0%
Eos [6]: 1%
Fbg [6]: 219 mg/dL
Hb [6]: 14.2 g/dL
Ht [6]: 39.1%
Lym [6]: 76.8%
MCH [6]: 21.8 pg
MCHC [6]: 36.3%
MCV [6]: 60.2 fL
Mono [6]: 3.4%
Neu [6]: 17.6%
PT [6]: 12 s
Plat [6]: 120.7 x10_4/uL
RBC [6]: 649.4 x10_4/ul
Ret [6]: 7.7%
WBC [6]: 62.8 x10_2/uL
KIDNEY_L [6]: 1 g
KIDNEY_R [6]: 1 g
KIDNEY_TOTAL [6]: 2 g
LIVER [6]: 9.4 g
A/G [6]: 1.6
ALP [6]: 672.6 IU/L
ALT [6]: 29.2 IU/L
AST [6]: 58.4 IU/L
BUN [6]: 8.6 mg/dL
CRE [6]: 0.3 mg/dL
Ca [6]: 10.5 mg/dL
Cl [6]: 100.4 meq/L
DBIL [6]: 0.07 mg/dL
GLC [6]: 176 mg/dL
IP [6]: 9.5 mg/dL
K [6]: 4.2 meq/L
LDH [6]: 162.2 IU/L
Na [6]: 139.2 meq/L
PL [6]: 142.4 mg/dL
RALB [6]: 3.2 g/dL
TBIL [6]: 0.1 mg/dL
TC [6]: 74.4 mg/dL
TG [6]: 44.2 mg/dL
TP [6]: 5.2 g/dL
gamma-GTP [6]: 1.2 IU/L
TERMINAL_BW [7]: 219.7 g
APTT [7]: 19.3 s
Bas [7]: 0%
Eos [7]: 0.8%
Fbg [7]: 219.4 mg/dL
Hb [7]: 13.8 g/dL
Ht [7]: 38.3%
Lym [7]: 71.8%
MCH [7]: 22 pg
MCHC [7]: 36%
MCV [7]: 60.9 fL
Mono [7]: 3.6%
Neu [7]: 22%
PT [7]: 12.4 s
Plat [7]: 125.2 x10_4/uL
RBC [7]: 630.2 x10_4/ul
Ret [7]: 7.7%
WBC [7]: 73.7 x10_2/uL
KIDNEY_L [7]: 1 g
KIDNEY_R [7]: 1 g
KIDNEY_TOTAL [7]: 1.9 g
LIVER [7]: 8.6 g
A/G [7]: 1.5
ALP [7]: 558.2 IU/L
ALT [7]: 35.8 IU/L
AST [7]: 78 IU/L
BUN [7]: 9 mg/dL
CRE [7]: 0.3 mg/dL
Ca [7]: 10.3 mg/dL
Cl [7]: 99.6 meq/L
DBIL [7]: 0.064 mg/dL
GLC [7]: 186.2 mg/dL
IP [7]: 9.7 mg/dL
K [7]: 4.2 meq/L
LDH [7]: 170.4 IU/L
Na [7]: 139.4 meq/L
PL [7]: 137.8 mg/dL
RALB [7]: 3 g/dL
TBIL [7]: 0.1 mg/dL
TC [7]: 74.8 mg/dL
TG [7]: 29.8 mg/dL
TP [7]: 5 g/dL
gamma-GTP [7]: 1 IU/L
TERMINAL_BW [8]: 201.5 g
APTT [8]: 24.3 s
Bas [8]: 1%
Eos [8]: 1%
Fbg [8]: 207 mg/dL
Hb [8]: 16.1 g/dL
Ht [8]: 44.2%
Lym [8]: 82.3%
MCH [8]: 22 pg
MCHC [8]: 36.6%
MCV [8]: 60.1 fL
Mono [8]: 2.3%
Neu [8]: 13%
PT [8]: 12.3 s
Plat [8]: 145.9 x10_4/uL
RBC [8]: 735.3 x10_4/ul
Ret [8]: 6.5%
WBC [8]: 84.5 x10_2/uL
KIDNEY_L [8]: 1 g
KIDNEY_R [8]: 1 g
KIDNEY_TOTAL [8]: 2 g
LIVER [8]: 7.7 g
A/G [8]: 1.6
ALP [8]: 449.7 IU/L
ALT [8]: 21 IU/L
AST [8]: 53 IU/L
BUN [8]: 9 mg/dL
CRE [8]: 0.3 mg/dL
Ca [8]: 10.5 mg/dL
Cl [8]: 100 meq/L
DBIL [8]: 0.06 mg/dL
GLC [8]: 141 mg/dL
IP [8]: 9 mg/dL
K [8]: 4.6 meq/L
LDH [8]: 113.3 IU/L
Na [8]: 139.3 meq/L
PL [8]: 100 mg/dL
RALB [8]: 3.2 g/dL
TBIL [8]: 0.1 mg/dL
TC [8]: 58.7 mg/dL
TG [8]: 13.3 mg/dL
TP [8]: 5.2 g/dL
gamma-GTP [8]: 1 IU/L
